# From patent US20250114357A1, “BIFUNCTIONAL PROTAC AND MOLECULAR GLUE COMPOUNDS AND METHODS OF USE THEREOF” (Biolexis Therapeutics, Inc., priority 2023, published 2025)
# pIC50: −log10 of the molar value.
# Target: T1, CDK9/CycT1 (Homo sapiens, UniProt P50750)
# T1 construct: purchased SignalChem
# Experiment: ADP-Glo Kinase Assay
# Assay type: biochemical
# Settings: Table 1; assay not given
# Protocol: ADP-Glo assay kit is purchased from Promega and the CDK9/CycT1 protein and PDKtide substrate are purchased from SignalChem. Compounds of Structure (I) are dosed in 10-dose IC50 mode in duplicate with 3-fold serial dilution starting at 100 μM. The reaction is started by pre-incubating 4 μL of protein (20 nM), 2 μL of substrate (100 μM), and 2 μL of serial diluted drug in 1× assay buffer (50 mM HEPES, 3 mM MgCl2, 3 mM MnCl2, and 1 mM DTT) for 30 minutes. After pre-incubating, 4 μL of ATP (1 μM) is added to each well and incubated for an additional 90 minutes. The ADP-Glo Reagent (10 μL) and Kinase Detection Reagent (20 μL) are added to each well and incubated as recommended by Promega. The reaction is quantified by measuring luminescence and the IC50 is calculated using GraphPad Prism software.
# T1 sequence (P50750 whole entry): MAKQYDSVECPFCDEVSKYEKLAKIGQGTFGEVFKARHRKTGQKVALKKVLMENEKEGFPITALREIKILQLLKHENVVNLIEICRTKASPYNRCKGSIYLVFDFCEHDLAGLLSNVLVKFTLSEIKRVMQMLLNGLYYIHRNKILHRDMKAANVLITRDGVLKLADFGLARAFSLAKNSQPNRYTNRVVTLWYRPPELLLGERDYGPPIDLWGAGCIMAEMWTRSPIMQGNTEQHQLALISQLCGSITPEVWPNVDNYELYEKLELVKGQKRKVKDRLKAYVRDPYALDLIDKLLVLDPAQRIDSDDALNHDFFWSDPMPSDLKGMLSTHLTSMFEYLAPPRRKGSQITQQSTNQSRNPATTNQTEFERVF
# T1 sequence (O60563 whole entry partner): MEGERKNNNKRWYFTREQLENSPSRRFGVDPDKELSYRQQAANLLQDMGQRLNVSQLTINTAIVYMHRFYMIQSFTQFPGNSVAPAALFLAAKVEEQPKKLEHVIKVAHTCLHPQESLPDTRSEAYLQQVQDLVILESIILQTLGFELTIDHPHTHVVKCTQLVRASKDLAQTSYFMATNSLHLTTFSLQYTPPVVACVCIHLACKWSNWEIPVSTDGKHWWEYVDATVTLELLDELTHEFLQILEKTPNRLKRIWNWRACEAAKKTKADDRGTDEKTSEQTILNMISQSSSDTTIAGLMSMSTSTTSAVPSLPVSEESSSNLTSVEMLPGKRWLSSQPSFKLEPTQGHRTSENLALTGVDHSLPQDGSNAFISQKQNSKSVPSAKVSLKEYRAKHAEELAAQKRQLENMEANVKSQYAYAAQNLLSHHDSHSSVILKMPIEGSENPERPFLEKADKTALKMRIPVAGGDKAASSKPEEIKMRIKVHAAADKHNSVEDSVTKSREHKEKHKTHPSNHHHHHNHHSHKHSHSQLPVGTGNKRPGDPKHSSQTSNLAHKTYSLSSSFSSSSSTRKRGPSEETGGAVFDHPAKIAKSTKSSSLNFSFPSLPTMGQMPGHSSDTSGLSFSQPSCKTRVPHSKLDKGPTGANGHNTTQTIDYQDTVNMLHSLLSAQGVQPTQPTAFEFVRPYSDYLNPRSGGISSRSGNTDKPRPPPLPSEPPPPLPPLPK
row,Compound,pIC50
1,"CC(C)c1c2cc(-c3ccnc(N[C@H]4CC[C@H](NCc5cccc6c5C(=O)N(C5CCC(=O)NC5=O)C6=O)C4)n3)cc(F)c2nn1C (stereo partly drawn) [Compound I-9, 2-(2,6-dioxopiperidin-3-yl)-4-((((1S,3S)-3-((4-(7-fluoro-3-isopropyl-2-methyl-2H-indazol-5-yl)pyrimidin-2-yl)amino)cyclopentyl)amino)methyl)isoindoline-1,3-dione]",6.00 to 8.30
2,"CC(C)c1c2cc(-c3ccnc(N[C@H]4CC[C@H](NCc5cccc6c5CN(C5CCC(=O)NC5=O)C6=O)C4)n3)ccc2nn1C (stereo partly drawn) [Compound I-8, 3-(4-((((1S,3S)-3-((4-(3-isopropyl-2-methyl-2H-indazol-5-yl)pyrimidin-2-yl)amino)cyclopentyl)amino)methyl)-1-oxoisoindolin-2-yl)piperidine-2,6-dione]",≥ 8.30
3,"CC(C)c1c2cc(-c3ccnc(N[C@H]4CC[C@H](NCc5ccc(-c6ccccn6)cc5)C4)n3)ccc2nn1C [Compound I-11, (1S,3S)-N^1-(4-(3-isopropyl-2-methyl-2H-indazol-5-yl)pyrimidin-2-yl)-N^3-(4-(pyridin-2-yl)benzyl)cyclopentane-1,3-diamine]",6.00 to 8.30
4,"CC(C)c1c2cc(-c3ccnc(N[C@H]4CC[C@H](NCc5ccc(-c6ccccn6)cc5)C4)n3)cc(F)c2nn1C [Compound I-12, (1S,3S)-N^1-(4-(7-fluoro-3-isopropyl-2-methyl-2H-indazol-5-yl)pyrimidin-2-yl)-N^3-(4-(pyridin-2-yl)benzyl)cyclopentane-1,3-diamine]",6.00 to 8.30
5,"CC(C)c1c2cc(-c3ccnc(N[C@H]4CC[C@H](NCCCCCc5cccc6c5C(=O)N(C5CCC(=O)NC5=O)C6=O)C4)n3)ccc2nn1C (stereo partly drawn) [Compound I-2, 2-(2,6-dioxopiperidin-3-yl)-4-(5-(((1S,3S)-3-((4-(3-isopropyl-2-methyl-2H-indazol-5-yl)pyrimidin-2-yl)amino)cyclopentyl)amino)pentyl)isoindoline-1,3-dione]",6.00 to 8.30
6,"CC(C)c1c2cc(-c3ccnc(N[C@H]4CC[C@H](NCc5cccc6c5CN(C5CCC(=O)NC5=O)C6=O)C4)n3)cc(F)c2nn1C (stereo partly drawn) [Compound I-10, 3-(4-((((1S,3S)-3-((4-(7-fluoro-3-isopropyl-2-methyl-2H-indazol-5-yl)pyrimidin-2-yl)amino)cyclopentyl)amino)methyl)-1-oxoisoindolin-2-yl)piperidine-2,6-dione]",≥ 8.30
7,"CC(C)c1c2cc(-c3ccnc(N[C@H]4CC[C@H](NC(=O)N5CCN(CCCCCc6cccc7c6CN(C6CCC(=O)NC6=O)C7=O)CC5)C4)n3)ccc2nn1C (stereo partly drawn) [Compound I-4, 4-(5-(2-(2,6-dioxopiperidin-3-yl)-1-oxoisoindolin-4-yl)pentyl)-N-((1S,3S)-3-((4-(3-isopropyl-2-methyl-2H-indazol-5-yl)pyrimidin-2-yl)amino)cyclopentyl)piperazine-1-carboxamide]",≥ 8.30
8,"CC(C)c1c2cc(-c3ccnc(N[C@H]4CC[C@H](NCCCCCc5cccc6c5CN(C5CCC(=O)NC5=O)C6=O)C4)n3)ccc2nn1C (stereo partly drawn) [Compound I-1, 3-(4-(5-(((1S,3S)-3-((4-(3-isopropyl-2-methyl-2H-indazol-5-yl)pyrimidin-2-yl)amino)cyclopentyl)amino)pentyl)-1-oxoisoindolin-2-yl)piperidine-2,6-dione]",6.00 to 8.30
9,"CC(C)c1c2cc(-c3ccnc(N[C@H]4CC[C@H](NC(=O)N5CCN(CCCCCc6ccc7c(c6)C(=O)N(C6CCC(=O)NC6=O)C7=O)CC5)C4)n3)cc(F)c2nn1C (stereo partly drawn) [Compound I-5, 4-(5-(2-(2,6-dioxopiperidin-3-yl)-1,3-dioxoisoindolin-5-yl)pentyl)-N-((1S,3S)-3-((4-(7-fluoro-3-isopropyl-2-methyl-2H-indazol-5-yl)pyrimidin-2-yl)amino)cyclopentyl)piperazine-1-carboxamide]",≥ 8.30
10,"CC(C)c1c2cc(-c3ccnc(N[C@H]4CC[C@H](NC(=O)N5CCN(CCCCCc6ccc7c(c6)CN(C6CCC(=O)NC6=O)C7=O)CC5)C4)n3)cc(F)c2nn1C (stereo partly drawn) [Compound I-6, 4-(5-(2-(2,6-dioxopiperidin-3-yl)-1-oxoisoindolin-5-yl)pentyl)-N-((1S,3S)-3-((4-(7-fluoro-3-isopropyl-2-methyl-2H-indazol-5-yl)pyrimidin-2-yl)amino)cyclopentyl)piperazine-1-carboxamide]",≥ 8.30
11,"CC(C)c1c2cc(-c3ccnc(N[C@H]4CC[C@H](NCc5cccc6c5C(=O)N(C5CCC(=O)NC5=O)C6=O)C4)n3)ccc2nn1C (stereo partly drawn) [Compound I-7, 2-(2,6-dioxopiperidin-3-yl)-4-((((1S,3S)-3-((4-(3-isopropyl-2-methyl-2H-indazol-5-yl)pyrimidin-2-yl)amino)cyclopentyl)amino)methyl)isoindoline-1,3-dione]",6.00 to 8.30
12,"CC(C)c1c2cc(-c3ccnc(N[C@H]4CC[C@H](NC(=O)N5CCN(CCCCCc6cccc7c6C(=O)N(C6CCC(=O)NC6=O)C7=O)CC5)C4)n3)ccc2nn1C (stereo partly drawn) [Compound I-3, 4-(5-(2-(2,6-dioxopiperidin-3-yl)-1,3-dioxoisoindolin-4-yl)pentyl)-N-((1S,3S)-3-((4-(3-isopropyl-2-methyl-2H-indazol-5-yl)pyrimidin-2-yl)amino)cyclopentyl)piperazine-1-carboxamide]",≥ 8.30
